What was measured:
Details in all cases: 48 h
[1] = test system: SEM cells; experiment: cell viability relative to DMSO control; higher = less cytotoxic
Procedure, shortened: (§1)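 Leukemia cells (NOMO1 or SEM, 500 cells/well; P12-Ichikawa, 1000 cells/well) were seeded in 5 μl in 1536-well plates after at least four passages of adaptation to each medium. They received library compounds in DMSO by pin dosing, 11 threefold points from 47 μM to 0.79 nM. Luminescence with CellTiter-Glo One was read after 48 h at 37°C. Viability is stated per plate relative to DMSO wells, with cell-free wells as background.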

[2] = test system: P12-Ichikawa; experiment: as above
Procedure, shortened: as §1

[3] = test system: SEM cells; experiment: AUC of viability dose-response curve (% viability x log10 dose units); higher = less sensitive
Procedure, shortened: (§2)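 Medium-adapted leukemia cells in 1536-well plates, at 500 or 1000 cells/well, were incubated for 48 h at 37°C with library compounds in DMSO at 11 threefold doses from 47 μM to 0.79 nM. CellTiter-Glo One luminescence normalised per plate to DMSO and cell-free wells was fitted with a four-parameter log-logistic model over log10 doses. Area under the curve was integrated from this fit by trapezoidal rule, with curves beyond full viability scaled and failed quality-control curves removed.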

[4] = test system: P12-Ichikawa; experiment: as above
Procedure, shortened: as §2

[5] = test system: NOMO1; experiment: as above
Procedure, shortened: as §2

[6] = test system: NOMO1; experiment: cell viability relative to DMSO control; higher = less cytotoxic
Procedure, shortened: as §1

CNC(=O)c1ccc(Nc2ncc(C(F)(F)F)c(NCc3nccnc3N(C)[S+](C)(=O)[O-])n2)cc1
cell viability [%], HPLM + 10% dialyzed FBS
Details | [1] | [2]
0.000781 µM | 115 | 120
0.00234 µM | 105 | 127
0.00702 µM | 124 | 117
0.0211 µM | 127 | 118
0.0632 µM | 125 | 124
0.19 µM | 113 | 114
0.569 µM | 99.8 | 122
1.71 µM | 63.2 | 125
5.12 µM | 23.5 | 109
15.4 µM | 16.7 | 89.4
46.1 µM | 20.9 | 102

AUC of viability dose-response curve
Details | [3] | [4] | [5]
HPLM + 10% dialyzed FBS | 348 | 457 | 446
RPMI 5 mM glucose + 10% FBS | 317 | 447 | 412
RPMI 5 mM glucose + 10% dialyzed FBS | 314 | 438 | 443

OCc1ccccc1O[C@@H]1O[C@H](CO)[C@@H](O)[C@H](O)[C@H]1O
Details | cell viability [%]
[1], RPMI 5 mM glucose + 10% dialyzed FBS, 0.000781 µM | 101
[1], RPMI 5 mM glucose + 10% dialyzed FBS, 0.00234 µM | 121
[1], RPMI 5 mM glucose + 10% dialyzed FBS, 0.00702 µM | 118
[1], RPMI 5 mM glucose + 10% dialyzed FBS, 0.0211 µM | 121
[1], RPMI 5 mM glucose + 10% dialyzed FBS, 0.0632 µM | 136
[1], RPMI 5 mM glucose + 10% dialyzed FBS, 0.19 µM | 148
[1], RPMI 5 mM glucose + 10% dialyzed FBS, 0.569 µM | 121
[1], RPMI 5 mM glucose + 10% dialyzed FBS, 1.71 µM | 117
[1], RPMI 5 mM glucose + 10% dialyzed FBS, 5.12 µM | 97.5
[1], RPMI 5 mM glucose + 10% dialyzed FBS, 15.4 µM | 61.8
[1], RPMI 5 mM glucose + 10% dialyzed FBS, 46.1 µM | 48.8
[6], RPMI 5 mM glucose + 10% FBS, 0.000781 µM | 120
[6], RPMI 5 mM glucose + 10% FBS, 0.00234 µM | 116
[6], RPMI 5 mM glucose + 10% FBS, 0.00702 µM | 139
[6], RPMI 5 mM glucose + 10% FBS, 0.0211 µM | 128
[6], RPMI 5 mM glucose + 10% FBS, 0.0632 µM | 126
[6], RPMI 5 mM glucose + 10% FBS, 0.19 µM | 139
[6], RPMI 5 mM glucose + 10% FBS, 0.569 µM | 138
[6], RPMI 5 mM glucose + 10% FBS, 1.71 µM | 127
[6], RPMI 5 mM glucose + 10% FBS, 5.12 µM | 129
[6], RPMI 5 mM glucose + 10% FBS, 15.4 µM | 106
[6], RPMI 5 mM glucose + 10% FBS, 46.1 µM | 98.7

AUC of viability dose-response curve
Details | [3] | [4] | [5]
HPLM + 10% dialyzed FBS | 430 | 464 | 447
RPMI 5 mM glucose + 10% FBS | 372 | 448 | 463
RPMI 5 mM glucose + 10% dialyzed FBS | 426 | 459 | 458

CN1CCCN(C(=O)c2cccc(-c3ccc(/C=C4/C(=O)Nc5ccc(Cl)cc54)o3)c2)CC1
cell viability [%]
Details | [1] | [2] | [6]
HPLM + 10% dialyzed FBS, 0.000781 µM | 98.9 | 106 | 134
HPLM + 10% dialyzed FBS, 0.00234 µM | 106 | 119 | 118
HPLM + 10% dialyzed FBS, 0.00702 µM | 109 | 114 | 120
HPLM + 10% dialyzed FBS, 0.0211 µM | 101 | 116 | 124
HPLM + 10% dialyzed FBS, 0.0632 µM | 118 | 114 | 112
HPLM + 10% dialyzed FBS, 0.19 µM | 107 | 120 | 102
HPLM + 10% dialyzed FBS, 0.569 µM | 84.1 | 106 | 109
HPLM + 10% dialyzed FBS, 1.71 µM | 71.7 | 92.3 | 103
HPLM + 10% dialyzed FBS, 5.12 µM | 48.4 | 76.9 | 91.8
HPLM + 10% dialyzed FBS, 15.4 µM | 22.8 | 76.9 | 96.7
HPLM + 10% dialyzed FBS, 46.1 µM | 2.97 | 59.2 | 66.1
RPMI 5 mM glucose + 10% FBS, 0.000781 µM | 90.2 | 117 | 124
RPMI 5 mM glucose + 10% FBS, 0.00234 µM | 117 | 108 | 107
RPMI 5 mM glucose + 10% FBS, 0.00702 µM | 106 | 111 | 108
RPMI 5 mM glucose + 10% FBS, 0.0211 µM | 119 | 117 | 110
RPMI 5 mM glucose + 10% FBS, 0.0632 µM | 127 | 115 | 98.3
RPMI 5 mM glucose + 10% FBS, 0.19 µM | 112 | 110 | 109
RPMI 5 mM glucose + 10% FBS, 0.569 µM | 77.2 | 102 | 94.4
RPMI 5 mM glucose + 10% FBS, 1.71 µM | 48 | 85.8 | 96.1
RPMI 5 mM glucose + 10% FBS, 5.12 µM | 16.7 | 54.7 | 99.4
RPMI 5 mM glucose + 10% FBS, 15.4 µM | 5.69 | 20.1 | 85.8
RPMI 5 mM glucose + 10% FBS, 46.1 µM | 3.36 | 3.03 | 47.4
RPMI 5 mM glucose + 10% dialyzed FBS, 0.000781 µM | 110 | 103 | 111
RPMI 5 mM glucose + 10% dialyzed FBS, 0.00234 µM | 108 | 107 | 112
RPMI 5 mM glucose + 10% dialyzed FBS, 0.00702 µM | 115 | 117 | 109
RPMI 5 mM glucose + 10% dialyzed FBS, 0.0211 µM | 106 | 114 | 107
RPMI 5 mM glucose + 10% dialyzed FBS, 0.0632 µM | 114 | 113 | 111
RPMI 5 mM glucose + 10% dialyzed FBS, 0.19 µM | 115 | 108 | 109
RPMI 5 mM glucose + 10% dialyzed FBS, 0.569 µM | 75.7 | 111 | 104
RPMI 5 mM glucose + 10% dialyzed FBS, 1.71 µM | 62.9 | 90.7 | 96.2
RPMI 5 mM glucose + 10% dialyzed FBS, 5.12 µM | 20.4 | 64.3 | 85.6
RPMI 5 mM glucose + 10% dialyzed FBS, 15.4 µM | 5.5 | 53 | 94.5
RPMI 5 mM glucose + 10% dialyzed FBS, 46.1 µM | 3.68 | 5.68 | 60

AUC of viability dose-response curve
Details | [3] | [4] | [5]
HPLM + 10% dialyzed FBS | 362 | 419 | 399
RPMI 5 mM glucose + 10% FBS | 324 | 372 | 446
RPMI 5 mM glucose + 10% dialyzed FBS | 332 | 396 | 436

Cc1c(C(=O)Nc2ccc(N3C[C@@H](C)O[C@@H](C)C3)nc2)cccc1-c1ccc(OC(F)(F)F)cc1
Details | cell viability [%]
[1], HPLM + 10% dialyzed FBS, 0.000781 µM | 113
[1], HPLM + 10% dialyzed FBS, 0.00234 µM | 125
[1], HPLM + 10% dialyzed FBS, 0.00702 µM | 116
[1], HPLM + 10% dialyzed FBS, 0.0211 µM | 133
[1], HPLM + 10% dialyzed FBS, 0.0632 µM | 131
[1], HPLM + 10% dialyzed FBS, 0.19 µM | 124
[1], HPLM + 10% dialyzed FBS, 0.569 µM | 132
[1], HPLM + 10% dialyzed FBS, 1.71 µM | 108
[1], HPLM + 10% dialyzed FBS, 5.12 µM | 16.3
[1], HPLM + 10% dialyzed FBS, 15.4 µM | 6.58
[1], HPLM + 10% dialyzed FBS, 46.1 µM | 4.61
[2], RPMI 5 mM glucose + 10% dialyzed FBS, 0.000781 µM | 128
[2], RPMI 5 mM glucose + 10% dialyzed FBS, 0.00234 µM | 119
[2], RPMI 5 mM glucose + 10% dialyzed FBS, 0.00702 µM | 119
[2], RPMI 5 mM glucose + 10% dialyzed FBS, 0.0211 µM | 131
[2], RPMI 5 mM glucose + 10% dialyzed FBS, 0.0632 µM | 131
[2], RPMI 5 mM glucose + 10% dialyzed FBS, 0.19 µM | 126
[2], RPMI 5 mM glucose + 10% dialyzed FBS, 0.569 µM | 124
[2], RPMI 5 mM glucose + 10% dialyzed FBS, 1.71 µM | 104
[2], RPMI 5 mM glucose + 10% dialyzed FBS, 5.12 µM | 48.6
[2], RPMI 5 mM glucose + 10% dialyzed FBS, 15.4 µM | 7.92
[2], RPMI 5 mM glucose + 10% dialyzed FBS, 46.1 µM | 6.12

AUC of viability dose-response curve
Details | [3] | [4] | [5]
HPLM + 10% dialyzed FBS | 361 | 349 | 366
RPMI 5 mM glucose + 10% FBS | 335 | 372 | 382
RPMI 5 mM glucose + 10% dialyzed FBS | 356 | 372 | 408

O=C([O-])Cc1ccccc1Nc1c(Cl)cccc1Cl
cell viability [%], [1]
Details | HPLM + 10% dialyzed FBS | RPMI 5 mM glucose + 10% FBS
0.000781 µM | 109 | 126
0.00234 µM | 121 | 113
0.00702 µM | 110 | 113
0.0211 µM | 125 | 109
0.0632 µM | 126 | 123
0.19 µM | 129 | 112
0.569 µM | 117 | 111
1.71 µM | 122 | 111
5.12 µM | 75.7 | 69.1
15.4 µM | 112 | 108
46.1 µM | 65.9 | 49

AUC of viability dose-response curve
Details | [3] | [4] | [5]
HPLM + 10% dialyzed FBS | 442 | 447 | 454
RPMI 5 mM glucose + 10% FBS | 429 | 445 | 455
RPMI 5 mM glucose + 10% dialyzed FBS | 430 | 447 | 458

From the supplement of paper PMC11451515
